Test results: patent US4264734A, “Process for producing antibiotic desacetyl 890A10” (Merck & Co., Inc., priority 1979, dated 1981)

How the values were obtained:
[1] = test system: Staphylococcus aureus ATCC 6538P; assay: Electrophoresis followed by bioactivity on Staphylococcus aureus assay plate; assay type: cell-based; settings: after incubation of 890A10 with cell sonicate and electrophoresis at pH 7.1; 37° C., 18 hours
Experimental: The flasks are shaken at 28° C. on a 220 rpm (2" throw) shaker for 4 days. A 30 ml. portion from each flask is centrifuged for 15 minutes at 8,000 rpm. The supernatant portion is removed, leaving only enough to form a thick suspension of cells and media solids. Half of the suspension is subjected to ultrasonic disruption using a Branson Instrument Model LS-75 Sonifier with a 1/2 inch probe. The input power is set at position No. 4, and four successive 15 second cycles of irradiation are used, while chilling the suspension in ice water during and between disruption. To test for the presence of N-acetyl-890A10 amidohydrolase activity, a 10-μl. portion of the sonicate is mixed with 25 μl. of an 890A10 solution containing 500 μg. per ml. Controls containing antibiotic and buffer alone; and sonicated cells and buffer without antibiotic are also run. After incubation overnight at 28° C., 10 μl. quantities are applied to Schleicher and Schuell No. 2043-B paper. Using 0.03 M potassium phosphate buffer pH 7.1, a voltage gradient of 50 volts/cm. is applied for 30 minutes. The paper is placed on a Staphylococcus aureus ATCC 6538P plate and incubated at 37° C. for 18 hours. […]
The flask is shaken at 28° C. on a 220 rpm (2-inch throw) shaker for four days. […] After incubation overnight at 28° C., 10-μl. quantities are applied to Schleicher & Schuell No. 2043-B paper. […]

[2] = Stability under acidic conditions in aqueous solution; assay type: physicochemical
[3] = test system: Vibrio percolans ATCC 8461; assay: Assay for 890 Assay Units, agar plate disc-diffusion method, cephaloridine as standard; assay type: cell-based; settings: 25 mm. zone of inhibition on a 5 ml. plate
Experimental: II. Assay Procedure for Determining "890 Assay Units" A conventional agar plate disc-diffusion method is employed using Vibrio percolans ATCC 8461 as tester organism. Cephaloridine is employed as a standard. Plates containing Vibrio percolans ATCC 8461 are prepared as follows. A culture of Vibrio percolans ATCC 8461 is incubated in nutrient broth-yeast extract overnight on a rotary shaker at 28° C. and then diluted to a density of 60% transmittance at 660 nm. A 33.2 ml. portion of this diluted culture is added to 1 liter of a medium composed of nutrient agar plus 0.2% yeast extract maintained at 46° C. The inoculated agar-containing medium is poured into 100×15 mm. plastic-petri dishes, 10 ml. per dish, chilled, and maintained at 2°-4° C. for up to 5 days before use. The concentration of cephaloridine which is equivalent to 1 unit/ml. of 890A1 is determined by assay on plates prepared as above, but containing 5 ml. of inoculated medium per plate, as follows. Four concentrations of cephaloridine constitute the standard--3.12, 6.25, 12.5 and 25 mcg per ml. with the 12.5 mcg per ml. as a reference solution. The zone diameters on a 5 ml. plate for the standard are as follows: A unit is defined as the amount of antibiotic per ml. producing a 25 mm. zone of inhibition on a 5 ml. plate as described in section I above. […]

[4] = test system: gram-positive and gram-negative bacteria; assay: Antibacterial activity (general statement); assay type: cell-based; settings: no test values printed

In the case of `CC(=O)NCCSC1=C(C(=O)O)N2C(=O)C(C(C)OS(=O)(=O)O)C2C1` (centres unmarked) [890A10], the “bioactive spot on Staphylococcus aureus plate” value [1] was “bioactive” and the “stability under acidic conditions” value [2] was “unstable”.
With `O=C(Cc1cccs1)N[C@@H]1C(=O)N2C(C(=O)[O-])=C(C[n+]3ccccc3)CS[C@H]12` [cephaloridine] the “concentration considered equivalent to 1 unit of 890A1 per ml” value [3] was 12.5 mcg per ml.
For `CC(OS(=O)(=O)O)C1C(=O)N2C(C(=O)O)=C(SCCN)CC12` (centres unmarked) [desacetyl 890A10], the antibacterial activity [4] was “active against various gram-positive and gram-negative bacteria” and the “bioactive spot on Staphylococcus aureus plate” value [1] was “bioactive”.
